Reference: US7416741B2, “Copper lowering treatment of inflammatory and fibrotic diseases” (The Regents of the University of Michigan, priority 2002, dated 2008)

What was measured:
Con A mouse model = experiment: Liver histological examination in the Con A mouse model; assay type: in vivo; settings: Ex 4; Con A mice
Procedure: A study was carried out in a mouse model of concanavilin A (Con A) production of liver cirrhosis. There were four experimental groups of several mice each. […] The Con A was injected intravenously once weekly into mice (0.3 mg/mouse/week), and produced a hepatitis, which is manifested by an increasing level of alanine transaminase (ALT) enzymes in the blood. The TM was given once daily by […] in a dose of 0.7 mg/mouse/day beginning 7 days prior to ConA treatment. During days 9 to 11 after Con A, the TM-treated mice received 1.2 mg of TM daily, to ensure adequate lowering of copper levels, and then received 0.7 mg daily for the duration of the study. A blood sample was obtained 28 days after ConA treatment, and the mice were sacrificed on the same day. Serum alanine transaminase (ALT) was measured in Sigma-Frankel (SF) units, where one unit is the formation of 0.000482 umoles of glutamate/minute at pH 7.5 and 25 ° C.

[1] = system: animal model of renal fibrosis; experiment: Streptozotocin rat model of renal fibrosis; assay type: in vivo; settings: Ex 7
Procedure: A study is carried out in an animal model of renal fibrosis. After kidney injury of almost any type, a diffuse interstitial fibrosis (believed to be due to over-activity of the TGFβ pathway) produces kidney failure. Rats are made diabetic by administering streptozotocin; renal fibrosis is typically well developed by 60 days after initiation of streptozotocin administration. TM therapy is initiated at varying times relative to streptozotocin administration in several groups of rats, and the results compared to control groups not receiving TM. Typically, at least three […] are present in each experimental group. In one group, TM therapy is initiated prior to streptozotocin administration, to determine whether TM therapy mitigates the pancreatic damage, as it mitigates hepatitis/cirrhosis in the concanavilin A mouse model described above. In other groups, TM is started after streptozotocin administration, at various times, to determine if it can mitigate the renal fibrosis that develops after streptozotocin administration.

Aβ40 and Aβ42 = Aβ40 and Aβ42 ELISA in brain homogenates of Tg2576 mice; assay type: in vivo; settings: Ex 8, TM 0.7 mg/mouse daily from 9 to 15 months of age
Procedure: A study is carried out in an mouse model of Alzheimer's disease. The mouse model is the Tg2576 mouse model, as described above in the Description of the Invention and in further detail in Gau et al., 2002 (J Gau et al., Amer. J. Pathology, 160(2):731-738 [2002]; J Q Trojanowski, Amer. J. Pathology, 160(2):409-411 [2002]). These mice begin developing amyloid plaques at about 9 months of age and plaques are well developed by 15 months. The transgenic mice also develop progressive age-dependent cognitive and behavioral abnormalities described in the background.
Forty female Tg2576 mice, aged 3 months, are purchased from Tagonic Inc, and grown until 9 months of age, at which time they are divided into two groups of 20. One group begins treatment with TM at 9 months of age, and are treated until sacrifice at age 15 months. […] Cp is determined by an oxidase method. […] The weight of the mice is determined weekly. […]
After 6 months of treatment with water or TM, all mice in both groups are sacrificed painlessly, and the brains removed and divided sagitally. […] Analysis of amyloid plaque load in mouse brains is determined by light-microscopic semi-quantitative analysis of brain sections. Subtle effects of treatment are measured by a more rigorous quantitative analysis of amyloid plaques in brain sections to detect a significant difference. […]

cancer patients = experiment: TM therapy in cancer patients; assay type: in vivo, human; settings: 180 mg/day induction dose
Procedure: TM has also shown positive effects in spontaneous canine cancers. A clinical phase ½ study of a variety of metastatic and advanced cancers has shown positive results, with an average of 11 months freedom from progression in evaluable patients, and long term stabilization in three patients (G J Brewer et al., Clin. Cancer Res., 6:1-10 [2000]). A number of phase 2 studies of specific cancers are under way.
The current cancer therapy induction dose for TM is 40 mg 3×daily with meals and 60 mg at bedtime separated from food (180 mg/day). At this dose, it takes 15-25 days to induce cancer patients into the Cp target range. This same induction dose is used for IPF patients. All patients remain on their induction doses until they reach target Cp levels, then are switched to maintenance therapy.

[2] = sheep; intravenous 99Mo labeled TM; cited from earlier work

For `[SH-].[SH-].[S]=[Mo]=[S]` [TM, tetrathiomolybdate], the “histological examination: inflammation and early bridging fibrosis” value (Con A mouse model) was “not in the TM treated animals”, the renal fibrosis ([1]; TM after diabetes is induced) was “mitigates the renal fibrosis” and the pancreatic damage ([1]; TM before streptozotocin) was “mitigates pancreatic damage”. For the same molecule, the “mean reduction in Aβ40 and Aβ42 levels in brain homogenates” value (Aβ40 and Aβ42) was “up to 50%”, the “time to induce patients into the Cp target range” value (cancer patients) was 15 to 25 days and the excreted in feces [2] was 5%. The excreted in urine [2] was “over 90%” and the “half-time of slow disappearance from plasma” value [2] was “about 40 h”.
